Source: patent US6987004B1, “Genes integrating signal transduction pathways” (Massachusetts Institute of Technology, priority 1998, dated 2006)
Blank lines part the entries; values can stand above or below the compound they belong to.

What was measured:
cAMP-GEFI [1] = target: T1, cAMP-GEFI (Rattus norvegicus, UniProt Q9Z1C8); test: cAMP agarose affinity bead binding assay; settings: excess amounts of competitor; in vitro translated cAMP-GEFI
T1 sequence (Q9Z1C8 43-926 limits assumed): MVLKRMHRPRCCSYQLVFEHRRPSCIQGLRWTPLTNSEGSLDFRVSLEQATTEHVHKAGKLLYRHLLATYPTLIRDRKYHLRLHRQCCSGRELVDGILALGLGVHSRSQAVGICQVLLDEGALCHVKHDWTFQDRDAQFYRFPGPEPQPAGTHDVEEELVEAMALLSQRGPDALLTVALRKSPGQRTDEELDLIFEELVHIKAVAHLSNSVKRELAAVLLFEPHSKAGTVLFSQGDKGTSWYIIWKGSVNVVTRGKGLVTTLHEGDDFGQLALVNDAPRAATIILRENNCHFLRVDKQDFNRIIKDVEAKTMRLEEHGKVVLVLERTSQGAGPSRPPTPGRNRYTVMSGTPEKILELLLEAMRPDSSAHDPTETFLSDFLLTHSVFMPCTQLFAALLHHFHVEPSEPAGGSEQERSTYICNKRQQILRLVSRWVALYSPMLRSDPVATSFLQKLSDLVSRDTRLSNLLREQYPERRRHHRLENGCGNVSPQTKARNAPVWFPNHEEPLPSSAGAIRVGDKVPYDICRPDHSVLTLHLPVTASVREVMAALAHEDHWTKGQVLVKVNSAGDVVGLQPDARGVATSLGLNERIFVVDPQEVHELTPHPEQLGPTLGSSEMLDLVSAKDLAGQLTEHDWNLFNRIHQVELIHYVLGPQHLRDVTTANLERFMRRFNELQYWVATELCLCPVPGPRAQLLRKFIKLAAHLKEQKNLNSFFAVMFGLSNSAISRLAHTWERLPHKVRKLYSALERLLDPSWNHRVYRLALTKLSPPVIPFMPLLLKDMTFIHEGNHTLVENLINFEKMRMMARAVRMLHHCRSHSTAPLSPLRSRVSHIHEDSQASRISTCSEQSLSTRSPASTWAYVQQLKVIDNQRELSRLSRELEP

CalDAG-GEFI = target: T2, CalDAG-GEFI (Mus musculus, UniProt Q9QUG9); test: Guanine nucleotide exchange activity in intact 293T cells cotransfected with mouse CalDAG-GEFI and GST-tagged Rap1A; format: cell-based; settings: 10 μM A23187 or 1 μM TPA for 3 min
T2 construct: expressed in transfected cells; host or cells: 293T cells
T2 sequence (Q9QUG9 with tags, fused parts or gaps M73V/I83V/Q99P/R233K/C339S/E542D/S598T limits assumed): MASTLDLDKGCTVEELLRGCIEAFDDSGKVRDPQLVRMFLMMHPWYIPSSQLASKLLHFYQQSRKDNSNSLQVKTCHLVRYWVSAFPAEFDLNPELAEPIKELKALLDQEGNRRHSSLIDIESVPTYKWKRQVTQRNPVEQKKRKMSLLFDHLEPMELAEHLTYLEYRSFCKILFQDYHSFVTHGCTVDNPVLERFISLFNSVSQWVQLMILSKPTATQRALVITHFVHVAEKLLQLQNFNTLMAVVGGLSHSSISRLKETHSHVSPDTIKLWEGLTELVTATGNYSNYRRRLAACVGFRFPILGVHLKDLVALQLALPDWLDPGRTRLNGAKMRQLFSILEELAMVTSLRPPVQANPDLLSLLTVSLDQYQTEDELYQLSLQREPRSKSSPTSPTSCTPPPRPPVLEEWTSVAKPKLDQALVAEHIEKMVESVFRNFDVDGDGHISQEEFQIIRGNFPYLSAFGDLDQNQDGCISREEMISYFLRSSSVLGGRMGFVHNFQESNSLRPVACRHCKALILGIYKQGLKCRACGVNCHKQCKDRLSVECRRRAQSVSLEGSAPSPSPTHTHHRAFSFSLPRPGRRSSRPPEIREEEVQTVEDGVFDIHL
Experimental: (§1) To determine the small G protein target of CalDAG-GEFI, guanine nucleotide exchange activity in vivo was analyzed using intact 293T cells cotransfected with a eukaryotic expression construct of mouse CalDAG-GEFI and GST-tagged Ras family proteins. Full-length mouse CalDAG-GEFI cDNA inserted into a pCMV-SPORT expression vector with a carboxy-terminal FLAG epitope was used for transfection. A PCR-amplified fragment of rat CalDAG-GEFII was subcloned into a pCAGGS expression vector with the addition of His6-tag at its amino-terminus, resulting in pCAGGS-His-CalDAGII. pEBG-Krev1 that expresses Rap1A was used as a fusion protein to glutathione S-transferase (GST) in mammalian cells, as described in Gotoh et al., 15 Mol. Cell Biol. 6746–53 (1995), pEBG-R-Ras, other vectors for Ras-family proteins obtained by inserting PCR-amplified cDNAs into pEBG expression vector, pCAGGS-C3G and pCAGGS-MSos1, and pCEV-H-RasVl2.
(§2) To determine the effect of CalDAG-GEFI on the Erk/MAP kinase cascade, Elk1 activation was measured in 293T cells transfected with CalDAG-GEFI or constitutively active H-Ras (RasV12), or both. […] 293T cells were transfected with pFR-Luc and pFA-Elk1 with various expression vectors, and light output was detected and analyzed by the use of LAS1000 film.

CalDAG-GEFII = target: T3, CalDAG-GEFII (Rattus norvegicus, UniProt Q9R1K8); test: Guanine nucleotide exchange activity in 293T cells transfected with CalDAG-GEFII (H-Ras activation); format: cell-based
T3 construct: expressed in transfected cells; host or cells: 293T cells
T3 sequence (Q9R1K8 1-795): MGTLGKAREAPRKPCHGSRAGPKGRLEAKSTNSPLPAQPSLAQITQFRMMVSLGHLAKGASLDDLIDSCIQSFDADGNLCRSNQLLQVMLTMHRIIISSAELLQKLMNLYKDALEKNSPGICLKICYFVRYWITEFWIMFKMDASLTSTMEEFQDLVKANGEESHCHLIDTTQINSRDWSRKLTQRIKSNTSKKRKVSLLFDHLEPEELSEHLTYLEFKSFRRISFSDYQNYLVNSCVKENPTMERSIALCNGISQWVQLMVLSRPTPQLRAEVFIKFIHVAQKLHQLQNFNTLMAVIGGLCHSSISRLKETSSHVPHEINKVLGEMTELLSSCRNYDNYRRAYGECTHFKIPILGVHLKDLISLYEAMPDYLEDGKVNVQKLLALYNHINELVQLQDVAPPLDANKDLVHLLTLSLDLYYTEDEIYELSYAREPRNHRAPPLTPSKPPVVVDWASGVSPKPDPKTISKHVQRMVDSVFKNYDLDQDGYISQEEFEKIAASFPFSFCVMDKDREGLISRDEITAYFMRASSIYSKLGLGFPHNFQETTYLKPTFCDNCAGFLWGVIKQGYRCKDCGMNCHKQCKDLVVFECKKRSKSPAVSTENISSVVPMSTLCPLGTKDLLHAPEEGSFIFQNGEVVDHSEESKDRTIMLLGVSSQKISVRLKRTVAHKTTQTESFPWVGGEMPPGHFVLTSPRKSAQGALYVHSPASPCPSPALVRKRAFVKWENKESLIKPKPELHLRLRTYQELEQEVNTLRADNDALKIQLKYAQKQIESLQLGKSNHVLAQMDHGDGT
Experimental: as §1
as §2, with “film. […]” for “film.”

cAMP-GEFII = target: T4, cAMP-GEFII (Homo sapiens, UniProt Q8WZA2); test: Ratio of GTP to GDP bound to Rap1A in 293T cells expressing cAMP-GEFII; format: cell-based
T4 construct: expressed in transfected cells; host or cells: 293T cells
Experimental: (§3) To determine the effect of CalDAG-GEFI on the Erk/MAP kinase cascade, Elk1 activation was measured in 293T cells transfected with CalDAG-GEFI or constitutively active H-Ras (RasV12), or both. 293T cells were transfected by SuperFect (Qiagen) as described in Gotoh, supra, with expression vectors for GST-tagged Ras family proteins and with those for various GEFs. Cells were labeled 24 hours after transfection with ^32Pi for 2 hr. In some experiments, cells were stimulated with either 10 μM A23187 or 1 μM phorbol-12-myristate-13-acetate (TPA) for 3 min. GST-tagged Ras family proteins were collected from cell lysates with glutathione Sepharose. Guanine nucleotides bound to Ras family proteins were separated by thin layer chromatography (TLC). Activation of Elk1 was examined by the PathDetect Elk1 transreporting system (Stratagene). 293T cells were transfected with pFR-Luc and pFA-Elk1 with various expression vectors, and light output was detected and analyzed by the use of LAS1000 film.
(§4) Forskolin/IBMX treatment given alone had no effect.

cAMP-GEFI [2] = target: T1, cAMP-GEFI; test: Ratio of GTP to GDP bound to Rap1A in 293T cells expressing cAMP-GEFI; format: cell-based; design: expressed in transfected cells; host or cells: 293T cells
Experimental: as §3, §4
Thus, cAMP-GEFI has a direct effect on Rap1A rather than secondary effects mediated by other Ras-superfamily GEFs.

Rap1A = test: GTP-bound Rap1A in 293T cells in the absence of cAMP-GEFs; format: cell-based; settings: treatment alone
From the text: as §4
cAMP-dependent activation of Rap1 has previously been ascribed to the phosphorylation of Rap1A by PKA, which raises its affinity to smgGDS, a GEF with broad substrate specificity. […] The activation of Rap1A induced by cAMP-GEFI and II is independent of the PKA pathway.

[3] = target: Rap1A as a fusion protein to glutathione S-transferase (pEBG-Krev1) (UniProt P62834)
Rap1A as a fusion protein to glutathione S-transferase (pEBG-Krev1), sequence (P62834 whole entry, the tested form may be a part): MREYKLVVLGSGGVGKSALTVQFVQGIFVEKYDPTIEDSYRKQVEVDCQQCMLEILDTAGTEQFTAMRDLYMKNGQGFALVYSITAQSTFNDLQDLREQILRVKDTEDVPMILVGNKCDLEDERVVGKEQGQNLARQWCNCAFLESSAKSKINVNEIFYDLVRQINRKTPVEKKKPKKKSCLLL

T4 sequence (Q8WZA2 whole entry): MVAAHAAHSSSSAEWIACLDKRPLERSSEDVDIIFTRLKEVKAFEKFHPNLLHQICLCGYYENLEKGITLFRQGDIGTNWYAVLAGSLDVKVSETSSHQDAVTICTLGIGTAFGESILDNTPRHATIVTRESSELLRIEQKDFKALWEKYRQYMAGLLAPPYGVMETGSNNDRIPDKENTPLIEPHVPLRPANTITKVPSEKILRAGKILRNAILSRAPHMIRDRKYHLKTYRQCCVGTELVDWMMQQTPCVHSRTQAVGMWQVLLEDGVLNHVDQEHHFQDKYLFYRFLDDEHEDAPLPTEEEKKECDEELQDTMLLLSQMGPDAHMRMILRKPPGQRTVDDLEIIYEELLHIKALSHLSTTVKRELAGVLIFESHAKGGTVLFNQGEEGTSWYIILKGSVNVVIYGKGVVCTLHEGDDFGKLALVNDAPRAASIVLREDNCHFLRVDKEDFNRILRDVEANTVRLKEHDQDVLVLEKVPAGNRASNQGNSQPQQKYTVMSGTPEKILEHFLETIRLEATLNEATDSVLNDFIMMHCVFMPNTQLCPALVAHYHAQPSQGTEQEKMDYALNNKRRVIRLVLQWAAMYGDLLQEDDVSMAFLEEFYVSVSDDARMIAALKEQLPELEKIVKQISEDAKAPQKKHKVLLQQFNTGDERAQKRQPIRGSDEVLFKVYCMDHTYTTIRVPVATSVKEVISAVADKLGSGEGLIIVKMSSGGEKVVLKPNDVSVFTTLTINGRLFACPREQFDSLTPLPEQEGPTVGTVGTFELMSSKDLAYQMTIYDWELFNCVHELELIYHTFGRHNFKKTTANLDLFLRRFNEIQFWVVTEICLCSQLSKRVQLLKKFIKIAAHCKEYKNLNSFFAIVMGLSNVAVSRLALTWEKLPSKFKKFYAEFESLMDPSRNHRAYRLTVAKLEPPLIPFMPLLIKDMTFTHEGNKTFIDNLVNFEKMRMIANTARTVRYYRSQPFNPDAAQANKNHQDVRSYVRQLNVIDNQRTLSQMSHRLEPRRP

Competition of radiolabeled cAMP-GEFI binding to cAMP agarose beads (cAMP-GEFI [1]): competed
Compound: Nc1ncnc2c1nc(Br)n2[C@@H]1O[C@@H]2COP(=O)(O)O[C@H]2[C@H]1O [8-Br-cAMP]

Compound: CNc1ccc2oc(C[C@H]3O[C@@]4(CC[C@H]3C)O[C@H]([C@H](C)C(=O)c3ccc[nH]3)[C@H](C)C[C@H]4C)nc2c1C(=O)O [A23187]
Effect on CalDAG-GEFI-induced increase in GTP-bound Rap1A (CalDAG-GEFI): augmented | Effect on CalDAG-GEFII H-Ras activation (CalDAG-GEFII): enhanced

Rap1A activation by cAMP-GEFII in the presence of the PKA inhibitor (cAMP-GEFII): could still activate Rap1A | Rap1A activation by cAMP-GEFI in the presence of the PKA inhibitor (cAMP-GEFI [2]; 293T cells): could still activate Rap1A
Compound: O=S(=O)(NCCNC/C=C/c1ccc(Br)cc1)c1cccc2cnccc12 [H-89]

Compound: Nc1ncnc2c1ncn2[C@@H]1O[C@@H]2COP(O)(=S)O[C@H]2[C@H]1O (stereo partly shown) [Sp-cAMPS]
Increase of GTP-bound Rap1A without cAMP-GEF (Rap1A): not detected | Activation of Rap1A (cAMP-GEFI [2]; cAMP-GEFI transfectants): activated Rap1A at levels similar to those induced by forskolin/IBMX

Compound: CCCCCCCCCCCCCC(=O)O[C@@H]1[C@@H](C)[C@@]2(O)[C@@H](C=C(CO)C[C@]3(O)C(=O)C(C)=C[C@@H]23)[C@@H]2C(C)(C)[C@]12OC(C)=O [TPA, phorbol-12-myristate-13-acetate]
Effect on CalDAG-GEFI-induced increase in GTP-bound Rap1A (CalDAG-GEFI): augmented | Effect on CalDAG-GEFII H-Ras activation (CalDAG-GEFII): enhanced

Compound: cAMP-GEFI (wild type)
time-course of the activation of Rap1A by forskolin/IBMX in cAMP-GEFI transfectants [3]: the activation began within 10 sec, reached a maximum at 5 min, and continued for at least 60 min
